# According to US20050182025A1, “Amidinylphenyl compounds and their use as fungicides” (priority 2002, published 2005):
# Key:
# Format in all cases: in vivo
# Septoria nodorum = assay: Test C: preventive spray on wheat seedlings, Septoria glume blotch, disease rating; settings: wheat seedlings sprayed to run-off, inoculated the following day with Septoria nodorum, 48 h saturated atmosphere then 9 days at 20° C.; test concentration not given
# Description: (§1) General protocol for preparing test suspensions: Test compounds were first dissolved in acetone in an amount equal to 3% of the final volume and then suspended at the desired concentration (in ppm) in acetone and purified water (50/50 mix) containing 250 ppm of the surfactant Trem® 014 (polyhydric alcohol esters). The resulting test suspensions were then used in the following tests. Spraying a 200 ppm test suspension to the point of run-off on the test plants was the equivalent of a rate of 500 g/ha. The test suspension was sprayed to the point of run-off on wheat seedlings. The following day the seedlings were inoculated with a spore suspension of Septoria nodorum (the causal agent of Septoria glume blotch) and incubated in a saturated atmosphere at 20° C. for 48 h, and then moved to a growth chamber at 20° C. for 9 days, after which disease ratings were made. Results for Tests A-C are given in Table A. In the table, a rating of 100 indicates 100% disease control and a rating of 0 indicates no disease control (relative to the controls). A dash (-) indicates no test results.
# [1] = system: Erysiphe graminis f. sp. tritici; assay: Test A: preventive spray on wheat seedlings, wheat powdery mildew, disease rating; settings: wheat seedlings sprayed to run-off, inoculated the following day with Erysiphe graminis f. sp. tritici, rated after 7 days at 20° C.; test concentration not given
# Description: as §1, with “spore dust” for “spore suspension”, “of Erysiphe graminis f. sp. tritici,” for “of Septoria nodorum”, “of wheat powdery mildew)” for “of Septoria glume blotch)”, “in” for “in a saturated atmosphere at 20° C. for 48 h, and then moved to”, “for 7” for “for 9”
# Puccinia recondita = assay: Test B: preventive spray on wheat seedlings, wheat leaf rust, disease rating; settings: wheat seedlings sprayed to run-off, inoculated the following day with Puccinia recondita, 24 h saturated atmosphere then 6 days at 20° C.; test concentration not given
# Description: as §1, with “Puccinia recondita” for “Septoria nodorum”, “wheat leaf rust)” for “Septoria glume blotch)”, “24” for “48”, “6” for “9”
Compound,"Test C disease control rating (100 = 100% disease control, 0 = no disease control relative to the controls) (Septoria nodorum) [%]","Test A disease control rating (100 = 100% disease control, 0 = no disease control relative to the controls) [1] [%]","Test B disease control rating (100 = 100% disease control, 0 = no disease control relative to the controls) (Puccinia recondita) [%]"
CCN(C)C(=S)Nc1cc(Cl)c(OCCC[Si](C)(C)C)cc1Cl [compound 184],78,100,99
CCN(C)C(=S)Nc1cc(Cl)c(OCCCC(C)C)c(Cl)c1C [compound 118],78,99,100
CCCC(CCC(C)C)Oc1cc(C)c(N=CN(C)C)cc1C (stereo not drawn) [Compound 33],0,95,100
CCC[Si](C)(C)CCCOc1cc(C)c(N=CN(C)C)cc1C [Compound 52],99,100,100
CCCCC(C)Oc1cc(C)c(N=CN(C)C)cc1C (stereo not drawn) [Compound 18],98,98,100
CC(=Nc1cc(C)c(OCCCC(C)C)cc1C)N(C)C [compound 96],100,0,100
C=CCN(C)C(=S)Nc1cc(Cl)c(OCCC[Si](C)(C)C)cc1C [compound 85],100,100,99
CCN(C)C=Nc1cc(Cl)c(OCCC[Si](C)(C)C)c(Cl)c1C [compound 182],67,98,79
CCN(C)C(=S)Nc1cc(C)c(OCCCC(C)(C)C)cc1C [compound 194],100,99,100
CCN(C)C(=S)Nc1cc(Cl)c(OCCCC(C)C)cc1C [compound 114],100,99,100
Cc1cc(OCC(=O)C(C)(C)C)c(C)cc1N=CN(C)C [Compound 4],0,0,92
Cc1cc(NCCCC(C)C)c(C)cc1N=CN(C)C [compound 154],47,0,0
Cc1cc(NC(=O)NCC(C)(C)C)c(C)cc1N=CN(C)C [compound 190],0,0,68
"CC(C)=CCOc1cc(C)c(N=CN(C)C)cc1C [Compound 1, N′-[2,5-Dimethyl-4-[(3-methyl-2-butenyl)-oxy]phenyl]-N,N-dimethylmethanimidamide]",92,32,100
Cc1cc(NC(=O)N(C)CC(C)(C)C)c(C)cc1N=CN(C)C [compound 193],0,0,23
CC(=Nc1cc(Cl)c(OCCCC(C)C)cc1C)N(C)C [compound 110],99,42,97
Cc1cc(OCCCCC(C)C)c(C)cc1N=CN(C)C [Compound 48],96,99,100
C=CCCCCOc1cc(C)c(N=CN(C)C)cc1C [Compound 5],89,0,100
CC[Si](C)(C)CCCOc1cc(C)c(N=CN(C)C2CC2)cc1Cl [compound 65],96,100,100
Cc1cc(NC(=S)N(C)C)c(C)c(Cl)c1OCCC[Si](C)(C)C [compound 133],53,99,85
"Cc1cc(OCCC[Si](C)(C)C)c(C)cc1N=CN(C)C [Compound 26, N′-[2,5-Dimethyl-4-[3-(trimethylsilyl)propoxy]phenyl]-N,N-dimethylmethanimidamide]",100,98,100
CCCCN(C)C=Nc1cc(C(C)C)c(OCCC[Si](C)(C)C)cc1C [compound 73],66,99,61
Cc1cc(OCCCCCl)c(C)cc1N=CN(C)C [Compound 16],97,88,100
CCCCC(CCC)Sc1cc(C)c(N=CN(C)C)cc1C (stereo not drawn) [compound 160],0,0,55
CCN(C)C(=S)Nc1cc(Cl)c(OCCC[Si](C)(C)C)c(Cl)c1C [compound 181],67,100,100
Cc1cc(OCCC[Si](C)(C)C)c(F)cc1N=CN(C)C(C)C [compound 63],100,100,100
